From PMC9256669, “Monomethyl auristatin antibody and peptide drug conjugates for trimodal cancer chemo-radio-immunotherapy” (Nature Communications, 2022)
Several values for one entry are separate records, joined by “and”; a condition that tells them apart may be missing. Identical values can stand only once. Like-named read-outs stand apart in the source and are kept apart here. Non-standard residues stand in square brackets, D forms with d. Residues, ends and D or L forms follow the SMILES beside them. *: point of attachment. Dolaproine = CO[C@@H]([C@@H]1CCCN1)[C@@H](C)C(=O)O; Dil = CC[C@H](C)[C@H](NC)[C@@H](CC(=O)O)OC; X1 = C[C@@H](N*)[C@@H](O)c1ccccc1; NMeV = CN[C@H](C(=O)O)C(C)C

What was measured:
[1] = Tumor drug measurement (MMAE by LC-MS/MS) after ACPP-MMAE; assay type: in vivo, mouse; conditions: LL/2 and B16 tumors, 10 nmoles ACPP-MMAE i.v.
Procedure: For CDX3379-MMAE drug measurements, 6-week-old female NOD SCID (University of California San Diego Animal Care Program) were injected orthotopically into the tongue with 150,000 CAL27 PIK3CA H1047R expressing cells in 20 µl of DMEM. After 10 days, mice were intravenously (i.v.) injected through the tail vein with 2.5 nmole of CDX3379-MMAE in 50 µl of PBS. […] Tumors were excised on days indicated in figure legends, weighed, and homogenized in 10 v/w of 2% acetic acid in 1:1 acetonitrile:water with a point sonicator (Fisher Scientific) using an amplitude range of 5–15% for 20 s on ice. Homogenates were centrifuged ([…], 10 min), supernatants collected for drug concentration measurements using LC–MS/MS. Drug concentration was determined by LC–MS/MS with Luna-2 C18 column and Agilent Trap XCT mass spectrometer. For MMAE tissue concentrations, integrated ion currents for m/z 682.4, 496.4 and m/z 686.4, 506.4 extracted from fragmented m/z 740.4 and 718.4, respectively, were combined. The total ion current was fit to a standard curve generated for each drug to quantitate tissue drug concentration.

[2] = test system: B16 cells; test: Cell surface binding of Cy5-labeled ADCs by flow cytometry; assay type: cell-based, murine
Procedure: Murine cancer cells incubated on ice with Cy5 labeled ADC, bound Cy5 signal measured
by flow cytometry. Mean fluorescent intensity measured and subtracted from baseline fluorescence of saline incubated cells for each cell line. Data representative of 3

[3] = test system: B16 tumors; conditions: status at the day printed in the same line, one line per mouse
Procedure: MOC1, B16, LL/2, and MC38 tumor cells were injected subcutaneously into the hindlimbs of 6-week-old female C57BL/6 albino mice in 100 µl of 1:1 Matrigel (BD) and PBS solution. Fractionated IR was delivered focally to the tumor-bearing hindlimbs (3 Gy to MC38 tumors and 5 Gy to LL/2 and B16 tumors) as indicated in figure legends using a PXI X-RAD 225 XL irradiator at maximal dose rate of 3 Gy/min with a beam-conditioning aluminum filter (Precision X-ray Irradiation). For RAG1 KO studies, 6-week-old female Rag1^tm1Mom mice were injected subcutaneously with tumor cells in their hindlimbs (Jackson Labs). For CD8 depletion studies, mice were i.p. injected with anti-CD8 (BioXCell #BE0117) at 10 mg/kg on days −6, −5 and −4 tumor cell implant and then weekly starting on day after tumor cells were injected or control antibody. […] Tumor volumes were measured and calculated using the formula as ½ * length * width^2. Mice were sacrificed when tumor volume reached >1500 mm^3, maximal tumor volume approved on our protocol for subcutaneous tumors.

[4] = test system: LL/2 cells; test: Cell cycle analysis; assay type: cell-based, murine
Procedure: Cells were MMAE treated for 24 h, fixed in 70% ethanol, stained with FxCyclePI/RNase solution (Life Technologies), and then analyzed by FACS using FlowJo software. […]
0.9 b) Cell cycle analysis […]
Source data are provided in Source Data file.

[5] = test system: LL/2 cells; test: Clonogenic survival with MMAE and 2 Gy (SF2); assay type: cell-based, murine; parameters: key: fraction surviving 2 Gy relative to non-irradiated cells
Procedure: Cells were treated with MMAE for 24 h and then irradiated with 2 Gy. […] Following IR, cells were counted, re-plated at varying cell numbers in drug free media. 10–14 days after initial seeding formed colonies were methanol fixed, stained with crystal violet, and counted. Surviving fraction at 2 Gy (SF2) was calculated as the fraction of cells surviving 2 Gy compared to non-irradiated cells. […]

Which “release of conjugated drug warhead in tumors” value [1] does the source give for “cyclo(RGD)fc-MC-HN-peg8-e9-oPLGC(Me)AG-r9-c-(MC-VC-PABC-MMAE)-CONH2 [ACPP-MMAE]” here?
Its value is “efficiently released its conjugated drug warhead equally in LL/2 and B16 tumors”.

What does the source list for “CDX3379-MMAE: anti-HER3 antibody CDX3379 with 4 MMAE per antibody via MC-VC-PABC linker, labeled with Cy5”?
cell surface binding to B16 cells [2]: dose response cell surface binding; Survival curve, status ([3]; CDX3379-MMAE + IR + αPD1): 0; Survival curve, status ([3]; CDX3379-MMAE + IR): 0 and 1

With `CC[C@H](C)[C@@H]([C@@H](CC(=O)N1CCC[C@H]1[C@H](OC)[C@@H](C)C(=O)N[C@H](C)[C@@H](O)c1ccccc1)OC)N(C)C(=O)[C@@H](NC(=O)[C@@H](NC)C(C)C)C(C)C` [MMAE, monomethyl auristatin E] (H-[NMeV]V[Dil][Dolaproine]-X1) as the compound, how does the G2/M fraction ([4]; MMAE 1 nM, replicate 1) read?
Its G2/M fraction is 0.15.

What about the G2/M fraction ([4]; MMAE 1 nM, replicate 2) of the same compound?
The G2/M fraction was 0.12.

What about the G2/M fraction ([4]; MMAE 2 nM, replicate 1) of the same compound?
The G2/M fraction was 0.13.

And the G2/M fraction ([4]; MMAE 2 nM, replicate 2)?
The G2/M fraction was 0.14.

And the G2/M fraction ([4]; MMAE 5 nM, replicate 1)?
The G2/M fraction was 0.21.

And the G2/M fraction ([4]; MMAE 5 nM, replicate 2)?
The G2/M fraction was 0.23.

And the G2/M fraction ([4]; MMAE 10 nM, replicate 1)?
The G2/M fraction was 0.63.

And the G2/M fraction ([4]; MMAE 10 nM, replicate 2)?
The G2/M fraction was 0.53.

And the SF2 ([5]; MMAE 1 nM with 2 Gy, replicate 1)?
The SF2 was 0.48.

What about the SF2 ([5]; MMAE 1 nM with 2 Gy, replicate 2) of the same compound?
The SF2 was 0.48.

What about the SF2 ([5]; MMAE 1 nM with 2 Gy, replicate 3) of the same compound?
The SF2 was 0.66.

What about the SF2 ([5]; MMAE 1 nM with 2 Gy, replicate 4) of the same compound?
The SF2 was 0.44.

What about the SF2 ([5]; MMAE 1 nM with 2 Gy, replicate 5) of the same compound?
The SF2 was 0.62.

What about the SF2 ([5]; MMAE 1 nM with 2 Gy, replicate 6) of the same compound?
The SF2 was 0.64.

What about the SF2 ([5]; MMAE 2 nM with 2 Gy, replicate 1) of the same compound?
Its SF2 is 0.46.

And the SF2 ([5]; MMAE 2 nM with 2 Gy, replicate 2)?
Its SF2 is 0.53.

What about the SF2 ([5]; MMAE 2 nM with 2 Gy, replicate 3) of the same compound?
The SF2 was 0.53.

What about the SF2 ([5]; MMAE 2 nM with 2 Gy, replicate 4) of the same compound?
Its SF2 is 0.41.

What about the SF2 ([5]; MMAE 2 nM with 2 Gy, replicate 5) of the same compound?
Its SF2 is 0.43.

And the SF2 ([5]; MMAE 2 nM with 2 Gy, replicate 6)?
Its SF2 is 0.43.

What about the SF2 ([5]; MMAE 3 nM with 2 Gy, replicate 1) of the same compound?
Its SF2 is 0.29.

And the SF2 ([5]; MMAE 3 nM with 2 Gy, replicate 2)?
The SF2 was 0.45.

And the SF2 ([5]; MMAE 3 nM with 2 Gy, replicate 3)?
Its SF2 is 0.38.

And the SF2 ([5]; MMAE 3 nM with 2 Gy, replicate 4)?
Its SF2 is 0.45.

What about the SF2 ([5]; MMAE 3 nM with 2 Gy, replicate 5) of the same compound?
Its SF2 is 0.26.

What about the SF2 ([5]; MMAE 3 nM with 2 Gy, replicate 6) of the same compound?
The SF2 was 0.38.
